Test results reported in patent US6126917A, “Epidermal growth factor receptor binding compounds for positron emission tomography” (Hadasit Medical Research Services and Development Ltd., priority 1999, dated 2000).
Values joined by “and” are separate entries in the source; they are usually repeats but may differ in a detail not shown here. Equal entries are not always repeated. “Also recorded” adds a separate entry of the source. Where two headings read alike, the source gives them in different places.

Legend:
[1] = cited from earlier work
EGFR-TK = molecular target: T1, EGFR-TK (Homo sapiens, UniProt P00533); assay: EGFR-TK autophosphorylation inhibition (ELISA assay); type: biochemical
T1 construct: As a source of EGFR-TK, A431 human epidermoid carcinoma cell lysate was used; endogenous in cells; host or cells: A431 human epidermoid carcinoma cells (Triton X-100 lysate, EGFR captured by monoclonal antibody m108)
Procedure: Autophosphorylation Inhibition Experiments:
EGFR-TK source: As a source of EGFR-TK, A431 human epidermoid carcinoma cell lysate was used. A431 cells were grown in DMEM containing 10% fetal calf serum and antibiotics penicillin and streptomycin). After several days, the cells were removed from the flasks by incubation at 37° C. with PBS/i mM EDTA buffer for 1 hour. […] Cell lysate was obtained with a further centrifugation (10,000 rpm×10 minutes at 4° C.), and the supernatant was collected and frozen at -70° C. in aliquots.
ELISA assay: EGFR-TK autophosphorylation IC50 values were obtained by means an ELISA assay. All the following incubations were performed at room temperature and with constant shaking. After each step the plate was washed with water (5×) and TBST buffer (1×). The final volume for each well was 150 μl. A Coming 96 well ELISA plate was coated with monoclonal anti EGFR antibody m108 (Sugen Inc.) diluted in PBS (pH 8.2), and kept overnight at 4° C.
After removing the unbound m108, the plate was washed and PBS containing 5% milk (1% fat) was added for the blocking (25 minutes). One aliquot of A431 cell lysate was thawed and added to the plate.
After 25 minutes, seven different concentrations of each inhibitor were added, and for each case one well was left as a control. All inhibitors were diluted in TBS/DMSO and the final concentration of DMSO was 0.05% in each well (including the controls).
After 25 minutes, and without washing the plate, ATP/MnCl2 solution was added in each well. The final concentration was 3 μM ATP/5 mM MnCl2. In this step the temperature was kept at 26° C. and the plate was under constant shaking. The incubation with ATP/MnCl2 was for 5 minutes.
Then, to stop the phosphorylation reaction, EDTA was added (pH 8, final concentration in each well 20 mM) and after 1 minute all the plate was washed.
Afterward, polyclonal anti-phosphotyrosine serum (Sugen, Inc.) was added (dilution of antibody in TBST containing 5% milk). The incubation was for 45 minutes.
For the calorimetric detection of phosphotyrosine in EGFR-TK, TAGO anti-rabbit peroxidase conjugate antibody (Sugen, Inc.) was added in TBST/5% milk solution (45 minutes).
After washing, the colorimetric reaction was performed by adding ABTS/H2 O2 in citrate-phosphate buffer.
The analysis of the data was performed with "Regression" software.
Since the exact concentrations of m108 in the stock solution and EGFR-TK in the cell lysate were unknown, an experiment was performed to determine the optimal dilution of m108 stock and lysate. Stock m108 (approx. 0.2-0.5 μg/μl) was diluted 1:400, 1:600, 1:800 and 1:1000 with PBS, while A431 cell lysate was diluted 1:2, 1:4, 1:6, 1:8, and 1:10.

[2] = average ± SEM, A431 cell lysate, 3 μM ATP/5 mM MnCl2, Table 1, read-out: Autophosphorylation IC50
[3] = read-out: IC50 toward epidermal growth factor receptor tyrosine kinase activity (autophosphorylation)

T1 sequence (P00533 25-1210): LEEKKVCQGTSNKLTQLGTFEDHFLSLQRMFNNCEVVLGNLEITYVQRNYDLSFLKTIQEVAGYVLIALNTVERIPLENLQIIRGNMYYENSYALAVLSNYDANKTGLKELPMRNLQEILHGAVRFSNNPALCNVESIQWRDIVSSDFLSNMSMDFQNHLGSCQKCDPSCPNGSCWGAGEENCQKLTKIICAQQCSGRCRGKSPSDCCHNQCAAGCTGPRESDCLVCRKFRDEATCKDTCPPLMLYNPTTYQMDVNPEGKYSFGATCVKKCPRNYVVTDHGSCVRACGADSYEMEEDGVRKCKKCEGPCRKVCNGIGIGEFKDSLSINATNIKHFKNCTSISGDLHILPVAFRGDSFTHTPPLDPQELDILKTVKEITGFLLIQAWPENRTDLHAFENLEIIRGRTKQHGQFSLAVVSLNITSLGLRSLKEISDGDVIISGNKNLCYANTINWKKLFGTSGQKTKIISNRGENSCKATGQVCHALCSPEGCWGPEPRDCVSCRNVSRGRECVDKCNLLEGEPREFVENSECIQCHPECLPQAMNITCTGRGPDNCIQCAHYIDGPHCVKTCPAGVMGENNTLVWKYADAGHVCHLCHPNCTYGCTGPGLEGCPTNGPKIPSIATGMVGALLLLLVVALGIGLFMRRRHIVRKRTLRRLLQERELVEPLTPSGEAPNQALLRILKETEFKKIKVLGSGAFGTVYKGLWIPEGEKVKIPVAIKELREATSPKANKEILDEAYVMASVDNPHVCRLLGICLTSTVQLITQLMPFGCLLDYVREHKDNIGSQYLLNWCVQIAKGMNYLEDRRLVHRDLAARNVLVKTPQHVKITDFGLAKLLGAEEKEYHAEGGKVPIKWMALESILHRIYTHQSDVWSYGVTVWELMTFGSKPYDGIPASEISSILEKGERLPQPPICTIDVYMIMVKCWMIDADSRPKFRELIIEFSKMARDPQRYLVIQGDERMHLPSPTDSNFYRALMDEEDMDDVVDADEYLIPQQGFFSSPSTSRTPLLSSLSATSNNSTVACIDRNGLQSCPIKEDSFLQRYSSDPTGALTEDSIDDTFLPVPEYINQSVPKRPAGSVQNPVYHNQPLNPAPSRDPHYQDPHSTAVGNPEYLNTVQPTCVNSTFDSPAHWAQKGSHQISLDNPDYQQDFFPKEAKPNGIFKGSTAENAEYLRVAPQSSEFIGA

IC50 (EGFR-TK; [2]) [µM]	IC50 (EGFR-TK; [3])	SMILES	plasma level after approximately 3 hours, % of the maximum ([1]; of maximum, after approximately 3 hours) [%]	metabolism ([1]; two identified as 6- and 7-monodemethylated derivatives)	EGFR-TK autophosphorylation inhibitor potency (EGFR-TK)
–	–	COc1cc2ncnc(Nc3cccc(Br)c3)c2cc1OC [PD 153035]	2	metabolism to four compounds	–
0.116 ± 0.014	0.116 µM	COc1cc2ncnc(Nc3cc(F)cc(C(F)(F)F)c3)c2cc1OC [Compound 3, ^4-[(3-Fluoro-5-trifluoromethylphenyl)amino]-6,7-dimethoxyquinazoline]	–	–	–
0.0761 ± 0.0032	0.076 µM and 0.0761 µM	COc1cc2ncnc(Nc3ccc(F)cc3)c2cc1OC [Compound 1, 4-[(4-Fluorophenyl)amino]-6,7-dimethoxyquinazoline]	–	–	–
0.00022 ± 0.00018	0.00022 µM	COc1cc2ncnc(Nc3cc(Cl)c(Cl)cc3F)c2cc1OC [Compound 4, 4-[(3,4-Dichloro-6-fluorophenyl)amino]-6,7-dimethoxyquinazoline]	–	–	most potent inhibitor; also recorded: very potent EGFR-TK autophosphorylation inhibitor
